Measurements: ChEMBL document CHEMBL1125127 (J Med Chem, 1990)

Assays:
[1] = test system: Canis familiaris; test: Concentration at which maximum change in […] was observed from control value in anesthetized dogs; The maximum observed change APD95 from control value and concentration at 30 uM when this occurred; type: functional, Canis lupus familiaris
[2] = test system: Canis familiaris; test: Concentration at which maximum change in […] was observed from control value in anesthetized dogs; The maximum observed change APD95 from control value and concentration at 100 uM when this occurred; type: functional, Canis lupus familiaris
[3] = test system: Canis familiaris; test: Concentration that causes a 20% increase in APD95 (action potential duration at 95% repolarization) from control value in anesthetized dogs; type: functional, Canis lupus familiaris
[4] = target: Beta adrenergic receptor (Canis familiaris)
[5] = test system: Canis familiaris; test: Maximum change in […] from control value in anesthetized dogs; 10 uM.; type: functional, Canis lupus familiaris
[6] = Ratio of number of active animals to number of treated at dose 30 mg/kg administered intraperitoneally in anesthetized dogs; No of animals tested=2; type: functional; details: route intraperitoneal
[7] = test system: Canis familiaris; test: Percent change in blood pressure (BP) from control at active dose 30 mg/kg administered intraperitoneally in anesthetized dogs; type: functional, Canis lupus familiaris; details: route intraperitoneal
[8] = test system: Canis familiaris; test: Percent change in FRP from control at active dose 30 mg/kg administered intraperitoneally in anesthetized dogs; type: functional, Canis lupus familiaris; details: route intraperitoneal
[9] = test system: Canis familiaris; test: Percent change in heart rate (HR) from control at active dose 30 mg/kg administered intraduodenally; details: route intraduodenal
[10] = target: Beta-1 adrenergic receptor (Canis familiaris)
[11] = target: T1, Beta-2 adrenergic receptor (Canis lupus familiaris, UniProt P54833)
T1 sequence (P54833 whole entry): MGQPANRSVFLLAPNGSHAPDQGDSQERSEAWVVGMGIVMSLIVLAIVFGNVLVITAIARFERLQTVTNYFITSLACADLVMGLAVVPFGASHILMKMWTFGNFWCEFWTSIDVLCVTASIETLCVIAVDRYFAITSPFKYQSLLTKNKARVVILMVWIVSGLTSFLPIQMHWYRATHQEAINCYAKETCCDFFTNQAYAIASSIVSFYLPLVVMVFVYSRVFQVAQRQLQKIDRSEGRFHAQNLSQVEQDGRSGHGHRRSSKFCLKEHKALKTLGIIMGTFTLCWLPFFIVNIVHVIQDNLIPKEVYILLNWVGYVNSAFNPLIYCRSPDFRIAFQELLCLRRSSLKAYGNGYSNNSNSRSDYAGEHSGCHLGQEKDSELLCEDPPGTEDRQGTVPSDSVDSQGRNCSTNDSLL
Description: Tested for Beta-2 adrenergic receptor selectivity in canine lung tissue in anesthetized dogs

[12] = Ratio of number of active animals to number of treated animals; No of animals tested=2; type: functional
[13] = target: T1, Beta-2 adrenergic receptor; test: Beta2-receptor selectivity in canine lung tissue in anesthetized dogs; type: functional
[14] = target: Adrenergic receptor beta (Canis lupus familiaris); test: Tested for beta-receptor binding inhibition from canine ventricular tissue, using [3H]dihydroalprenolol as the radioligand in anesthetized dogs
[15] = Ratio of number of active animals to number of treated at dose 10-30 mg/kg administered intraperitoneally in anesthetized dogs; No of animals tested=3; type: functional
[16] = test system: Canis familiaris; test: Percent change in heart rate (HR) from control at active dose 10-30 mg/kg administered intraduodenally
[17] = test system: Canis familiaris; test: Percent change in FRP from control at active dose 10-30 mg/kg administered intraperitoneally in anesthetized dogs; type: functional, Canis lupus familiaris
[18] = test system: Canis familiaris; test: Percent change in blood pressure (BP) from control at active dose 10-30 mg/kg administered intraperitoneally in anesthetized dogs; type: functional, Canis lupus familiaris

| IC50 [4] [µM] | Structure (SMILES) | C20 [3] [µM] | Max delta [5] [%] | also measured |
| --- | --- | --- | --- | --- |
| – | CS(=O)(=O)Nc1ccc(OC[C@H](O)CNCCOc2ccc(-n3ccnc3)cc2)cc1 | – | – | Max delta [1]: 73% |
| 293 | CC(=O)Nc1ccc(OCC(O)CN2CCN(c3ccc(NS(C)(=O)=O)cc3)CC2)cc1 (stereo not given) | 42 | – | Max delta [2]: 39% |
| 12.2 | CS(=O)(=O)Nc1ccc(C(=O)N2CCN(CC(O)COc3ccccc3)CC2)cc1 (stereo not given) | <1 | 88 | – |
| 2.9 | CS(=O)(=O)Nc1ccc(C(=O)NCCNCC(O)COc2ccccc2C#N)cc1 (stereo not given) | 23.7 | – | Max delta [1]: 31% |
| 192 | CS(=O)(=O)Nc1ccc(C(=O)NC2CCCCC2NCC(O)COc2ccccc2)cc1 (stereo not given) | 5.3 | 45 | Ratio [6]: 2; Change [7]: 17%; Change [8]: 15%; Change [9]: -19% |
| 12.4 | COCCc1ccc(OCC(O)CNCCNC(=O)c2ccc(-n3ccnc3)cc2)cc1 (stereo not given) | <1.4 | 70 | – |
| – | CS(=O)(=O)Nc1ccc(OCC(O)CNCc2ccc(-n3ccnc3)cc2)cc1 (stereo not given) | 1.8 | – | IC50 [10]: 33.1 µM; Max delta [1]: 67% |
| – | CCN(CC)CCNC(=O)c1ccc(NS(C)(=O)=O)cc1 [SEMATILIDE] | 4.4 | – | Max delta [2]: 65% |
| 3.9 | CS(=O)(=O)Nc1ccc(C(=O)NCCNCC(O)COc2ccccc2)cc1 (stereo not given) | 7.1 | – | Ratio [12]: 0; Max delta [1]: 26% |
| 227 | CS(=O)(=O)Nc1ccc(OCC(O)CNCCNC(=O)c2ccc(-n3ccnc3)cc2)cc1 (stereo not given) | 5.8 | – | Ratio [6]: 1; Max delta [2]: 58%; Change [7]: 30%; Change [8]: 14%; Change [9]: -18% |
| – | COCCc1ccc(OCC(O)CNCCOc2ccc(-n3ccnc3)cc2)cc1 (stereo not given) | – | – | IC50 [13]: 4.5 µM; Max delta [2]: 89%; C20 APD95 [3]: 14.8 µM |
| 25.8 | COCCc1ccc(OCC(O)CNCc2ccc(NS(C)(=O)=O)cc2)cc1 (stereo not given) | 0.5 | 57 | IC50 [10]: 7.3 µM; IC50 [11]: 46 µM |
| – | COc1ccccc1C(O)CNCCOc1ccc(-n2ccnc2)cc1 (stereo not given) | – | – | IC50 [14]: 3.7 µM; C20 APD95 [3]: 10.4 µM; Max delta [1]: 33% |
| 109 | COCCc1ccc(OCC(O)CN2CCN(c3ccc(NS(C)(=O)=O)cc3)CC2)cc1 (stereo not given) | 3.2 | 76 | No. effective [15]: 3; Change [16]: -12%; Change [17]: 15%; Change [18]: 9% |
| 360 | COCCc1ccc(OCC(O)CN2CCN(C(=O)c3ccc(NS(C)(=O)=O)cc3)CC2)cc1 (stereo not given) | 7.7 | 56 | – |
| 43.8 | COc1ccc(OCC(O)CNCCNC(=O)c2ccc(NS(C)(=O)=O)cc2)cc1 (stereo not given) | 0.6 | 86 | Ratio [12]: 0 |

| Structure (SMILES) | IC50 [4] [µM] | C20 [3] [µM] | Max delta [5] [%] | also measured |
| --- | --- | --- | --- | --- |
| Cc1ccccc1OCC(O)CNCc1ccc(-n2ccnc2)cc1 (stereo not given) | 0.78 | 0.3 | 65 | IC50 [10]: 0.8 µM; IC50 [11]: 1.2 µM |
| CS(=O)(=O)Nc1ccc(C(=O)NCCNCC(O)COc2cccc3ccccc23)cc1 (stereo not given) | 0.15 | 1.1 | 48 | Ratio [12]: 0 |
| Cc1cccc(OCC(O)CNCc2ccc(NS(C)(=O)=O)cc2)c1 (stereo not given) | 0.99 | <1 | 44 | IC50 [10]: 2.4 µM; IC50 [11]: 4.4 µM |
